Article PMC4176160, “Characterization of three mycobacterial DinB (DNA polymerase IV) paralogs highlights DinB2 as naturally adept at ribonucleotide incorporation” (Nucleic Acids Research, 2014)
Where two headings read alike, the source gives them in different places. Blank lines part the entries; values can stand above or below the compound they belong to.

Biological target: T1, DinB2 (MsmDinB2) (Mycolicibacterium smegmatis, UniProt A0QR77)
T1 construct: gene dinB; full-length 356 aa, 39 kDa, monomer; expressed in E. coli BL21(DE3) as His10Smt3 fusion, tag removed with Ulp1
T1 sequence (A0QR77 entry or part of it): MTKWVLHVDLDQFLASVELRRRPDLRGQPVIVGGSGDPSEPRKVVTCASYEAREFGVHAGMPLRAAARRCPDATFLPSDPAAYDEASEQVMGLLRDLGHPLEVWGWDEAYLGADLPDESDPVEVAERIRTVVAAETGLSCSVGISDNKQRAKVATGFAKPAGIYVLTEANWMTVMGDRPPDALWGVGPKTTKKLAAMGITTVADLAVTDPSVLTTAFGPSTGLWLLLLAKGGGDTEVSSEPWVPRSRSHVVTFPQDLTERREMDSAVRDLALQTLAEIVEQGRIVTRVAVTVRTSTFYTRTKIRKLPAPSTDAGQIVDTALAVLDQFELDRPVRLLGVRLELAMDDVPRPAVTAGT
Assay: primer extension, kobs of first nucleotide addition vs nucleotide concentration, hyperbolic fit
Format: biochemical
Conditions: 5 mM MgCl2, 10 mM Tris-HCl pH 7.5, 37 °C, 1 μM enzyme, read-out: apparent Kd

[1] = 50 nM 13-mer/18-mer DNA primer-template with dT as first template base
[2] = 50 nM 13-mer/18-mer DNA primer-template with dG as first template base
[3] = 50 nM 13-mer/18-mer DNA primer-template with dA as first template base
[4] = 50 nM 13-mer/18-mer DNA primer-template with dC as first template base

- Kd [1]: 66 µM
SMILES: Nc1ncnc2c1ncn2[C@@H]1O[C@H](COP(=O)(O)OP(=O)(O)OP(=O)(O)O)[C@@H](O)[C@H]1O [ATP]

- Kd [2]: 1.5 µM
SMILES: Nc1ccn([C@H]2C[C@H](O)[C@@H](COP(=O)(O)OP(=O)(O)OP(=O)(O)O)O2)c(=O)n1 [dCTP]

- Kd [1]: 0.85 µM
SMILES: Nc1ncnc2c1ncn2[C@H]1C[C@H](O)[C@@H](COP(=O)(O)OP(=O)(O)OP(=O)(O)O)O1 [dATP]

- Kd [3]: 411 µM
SMILES: O=c1ccn([C@@H]2O[C@H](COP(=O)(O)OP(=O)(O)OP(=O)(O)O)[C@@H](O)[C@H]2O)c(=O)[nH]1 [UTP]

- Kd [3]: 8 µM
SMILES: Cc1cn([C@H]2C[C@H](O)[C@@H](COP(=O)(O)OP(=O)(O)OP(=O)(O)O)O2)c(=O)[nH]c1=O [dTTP]

- Kd [2]: 44 µM
SMILES: Nc1ccn([C@@H]2O[C@H](COP(=O)(O)OP(=O)(O)OP(=O)(O)O)[C@@H](O)[C@H]2O)c(=O)n1 [CTP]

- Kd [4]: 22 µM
SMILES: Nc1nc2c(ncn2[C@@H]2O[C@H](COP(=O)(O)OP(=O)(O)OP(=O)(O)O)[C@@H](O)[C@H]2O)c(=O)[nH]1 [GTP]

- Kd [4]: 0.87 µM
SMILES: Nc1nc2c(ncn2[C@H]2C[C@H](O)[C@@H](COP(=O)(O)OP(=O)(O)OP(=O)(O)O)O2)c(=O)[nH]1 [dGTP]
